Values quoted from earlier work, collected in PMC3459150 (Atherosclerosis, 2012).

Columns and labels:
[1] = apo E null mice
apoE null mice = settings: chronic administration
[2] = system: dyslipidemic mouse models

Half-time of clearance ([1]; peritoneally-injected) | Sequence | Half-time of clearance, rapid phase ([1]; intravenous, bi-phasic) | Half-time of clearance, slow phase ([1]; intravenous, bi-phasic) | Atheroprotection / inhibition of atherosclerosis (apoE null mice) | Inhibition of atherosclerosis [2] | Plasma cholesterol levels [2]
– | LRKLRKRLLRDWLKAFYDKVAEKLKEAF [Ac-hE18A-NH2] | 0.027 h | 1.61 h | inhibits atherosclerosis | – | –
2.01 h | DWFKAFYDKVAEKFKEAF [4F] | – | – | – | able to inhibit atherosclerosis | without changing plasma cholesterol levels
